Measurements reported in patent US4996212A, “Antiinflammatory and anti-hyperproliferative compounds” (Schering Corporation, priority 1989, dated 1991).

Legend:
5-lipoxygenase = target: T1, 5-lipoxygenase (Rattus norvegicus, UniProt P12527); test: 5-lipoxygenase activity / arachidonic acid metabolism in rat neutrophils; format: cell-based; settings: compound concentration 5×^10-5 Molar, [14C] arachidonic acid
T1 construct: at 3-12×10^7 intact neutrophils per ml; endogenous in cells; host or cells: neutrophils from the pleural exudate of male Wistar-Lewis rats (reversed passive Arthus reaction)
T1 sequence (P12527 1-673): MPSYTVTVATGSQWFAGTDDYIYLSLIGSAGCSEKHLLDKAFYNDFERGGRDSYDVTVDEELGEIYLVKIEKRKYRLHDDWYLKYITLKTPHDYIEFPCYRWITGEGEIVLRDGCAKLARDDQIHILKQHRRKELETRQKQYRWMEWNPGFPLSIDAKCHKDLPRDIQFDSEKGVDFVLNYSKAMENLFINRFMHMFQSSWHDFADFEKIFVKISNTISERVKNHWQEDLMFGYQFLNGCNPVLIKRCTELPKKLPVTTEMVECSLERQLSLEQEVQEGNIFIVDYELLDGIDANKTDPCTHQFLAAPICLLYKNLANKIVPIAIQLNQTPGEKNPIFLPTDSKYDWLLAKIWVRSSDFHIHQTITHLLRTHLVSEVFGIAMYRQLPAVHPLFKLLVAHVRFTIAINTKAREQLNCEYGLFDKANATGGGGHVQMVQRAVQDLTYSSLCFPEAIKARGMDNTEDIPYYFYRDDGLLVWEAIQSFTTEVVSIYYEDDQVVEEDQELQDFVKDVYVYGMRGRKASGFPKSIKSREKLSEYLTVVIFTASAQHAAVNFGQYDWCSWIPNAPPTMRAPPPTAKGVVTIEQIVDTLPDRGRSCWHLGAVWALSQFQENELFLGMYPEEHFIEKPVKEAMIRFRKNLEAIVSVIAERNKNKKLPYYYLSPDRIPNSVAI
Protocol: The effect of the compounds of the invention on 5-lipoxygenase activity is determined using rat neutrophils. Male Wistar-Lewis rats are injected intravenously with 5 mg BSA in 0.2 ml pyrogen free saline followed by an intrapleural injection of 500 ug of the IgG fraction of rabbit anti-BSA (Cappel Labs., Lot 17782) in 0.2 ml pyrogen free saline. Injections are made under light ether anesthesia. Four hours later, the pleural cavity exudate consisting of 85 to 95% neutrophils is removed. Neutrophils are isolated from the pleural exudates by centrifugation of 4° C. for 10 min at 200×g. The cell pellet is resuspended in 17 mM Tris HCl buffer, pH 7.2, containing 0.75% NH4 Cl to lyse contaminating erythrocytes followed by centrifugation at 4° C. for 5 min at 200×g. The pelleted neutrophils are rewashed in 50 mM Tris HCl, pH 7.4, containing 100 mM NaCl, followed by the same centrifugation. The cell pellet is resuspended in 50 mM Tris HCl, pH 7.4, containing 100 mM NaCl and 1 mM CaCl2, at 3-12×10^7 intact neutrophils per ml.
Solutions of compounds in methanol are dried, then resuspended in the cell suspension for 4 min. Arachidonic acid metabolism is determined by incubating 0.1 ml of this suspension with 40 uM [×^14 C] arachidonic acid (AA) (Amersham, 59 Ci/mole), in the presence of 0.1% BRIJ 56 and 10 uM A23187. Arachidonic acid metabolism as well as the various drug and reagent abbreviations are described in detail in Arch. Dermatol, Vol. 119, pages 541 to 547 (July 1983), the teachings of which are incorporated herein by reference. Assays run in triplicate are initiated by adding cells with inhibitor to a film of the BRIJ 56, arachidonic acid and A23187 at 37° C. After one minute, reactions are terminated by the addition of 2.4 ml of a chloroform:methanol (1:1 v/v) mixture and 0.9 ml of 0.1% formic acid. […] Products, leukotriene B4 (LTB4), 12-hydroxy heptadecatrienoic acid (HHT) and 5-hydroxy icosatetraenoic acid (5-HETE), are located by autoradiography and appropriate regions of the thin layer plates are scraped and counted in a liquid scintillation counter. […]

[1] = system: Male Lewis inbred albino rats; test: Reversed Passive Arthus Reaction (RPAR), paw volume; format: in vivo; settings: po, rat paw RPAR
Protocol: Reversed Passive Arthus Reaction (RPAR) Animals, Materials and Methods
Male Lewis inbred albino rats weighing 180-220 grams obtained from Charles River Breeding Laboratories are used in these experiments. The rats are housed 3 animals/cage and food and water are allowed ad libitum.
The animals are numbered 1-3 in each cage and color marked for identification purposes.
All reagents and drugs are prepared just prior to the study. Crystallized and lyophilized bovine serum albumin (BSA), obtained from Sigma Chemical Company, is solubilized without shaking in cold sterile pyrogen free saline (10 mg/ml). Lyophilized anti-bovine serum albumin (IgG Fraction), obtained from Cappel Laboratories, is suspended in sterile distilled water and diluted with cold pyrogen free saline (PFS) just prior to use. The final concentration of anti-bovine serum albumin is 0.5 mg/ml of PFS. Both BSA and anti-BSA solutions are iced during use. Drugs are suspended or solubilized in an aqueous solution of methyl cellulose (MC) with a homogenizer just prior to administration.
Groups of animals (6/group) are dosed with drug in MC by gavage one hour prior to sensitization with BSA. […] The volume of mercury displaced is converted to weight and recorded. […] Paw volumes are also recorded with a plethysmograph during the development of the inflammation at 2 and 4 hours post-challenge.

pleural cavity of rats = test: reverse passive Arthus reaction in the pleural cavity of rats; format: in vivo; settings: po, rat pleural cavity RPAR
Description: Another procedure for testing for acute antiinflammatory activity measures the reverse passive Arthus reaction in the pleural cavity of rats as described in Myers et al., Inflammation, Vol. 9, No. 1, 1985, pp. 91-98.

## O=c1c2c(c3cccnc3n1-c1ccccc1)N(c1ccccc1)CC2 [1,2,3,5-tetrahydro-1,5-diphenyl-4H-pyrrolo[3,2-c][1,8]napthyridin-4-one]
5-lipoxygenase
  inhibition of HETE production: ~60%
  inhibition of HHT production: about 40%
  inhibition of LTB4 production: ~60%

## O=c1c2c(c3cccnc3n1-c1ccccc1)NCC2 [1,2,3,5-tetrahydro-5-phenyl-4H-pyrrolo[3,2-c][I, 8]napthyridin-4-one]
[1]
  ED50: ~25 mg/kg
Pleural cavity of rats
  ED50: < 25 mg/kg

## CCOC(=O)N1CCc2c1c1cccnc1n(-c1ccccc1)c2=O [2,3,4,5-tetrahydro-4-oxo-5-phenyl-1H-pyrrolo[3,2-c][1,8]napthyridine-1-carboxylic acid, ethyl ester]
Pleural cavity of rats
  ED50: ~25 mg/kg
